Patent US10633375B2, “Oxopicolinamide derivative, preparation method therefor and pharmaceutical use thereof” (Jiangsu Hengrui Medicine Co., Ltd., priority 2016, dated 2020)
“And” between values parts separate entries of the source, which are not always exact repeats. Identical values can stand only once.

Key:
human blood = assay: In vitro anticoagulant effect on human blood (APTT, CT2); conditions: Table 2; concentration corresponding to 2 times the APTT of the blank control, human plasma
Procedure, shortened: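 Citrated human plasma (3.8% sodium citrate, 1:9) spiked with compound serially diluted in 100% DMSO (0.3–3000 μM dilution series; DMSO blank) and APTT measured on a coagulation analyser. CT2 is the compound concentration doubling blank APTT, from curve fitting.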

[1] = Determination of APTT value in cynomolgus monkeys; format: in vivo; conditions: cynomolgus monkey, individual animals; for APTT (sec) 1 hour / APTT (sec) 2 hours / APTT (sec) 4 hours / APTT (sec) 8 hours / APTT (sec) 12 hours: 15.0 mg/kg intragastric; for APTT (sec) 1 hour: 1 hour after administration; for APTT (sec) 2 hours: 2 hours after administration; for APTT (sec) 4 hours: 4 hours after administration; for APTT (sec) 8 hours: 8 hours after administration; for APTT (sec) 12 hours: 12 hours after administration; for APTT (sec) Before Administration: baseline before 15.0 mg/kg intragastric dose
Procedure: (§1) Test Example 4: Determination of APTT Value and Pharmacokinetic Assay in Cynomolgus Monkey
(§2) Six male cynomolgus monkeys (101, 102, 103, 201, 202 and 203) were purchased from Guangxi Xiongsen Primate Experimental Animal Breeding Development Co., Ltd.
(§3) Compounds of Example 5 and Example 108.
(§4) 4. Preparation of the Test Compounds
(§5) A certain amount of the test compound was weighed, and added with 2% by volume of DMSO, 78% by volume of PEG400 and 20% CMC-Na (0.5%) to prepare a 3.0 mg/mL colorless, clear and transparent solution.
(§6) After an overnight fast, cynomolgus monkeys were intragastrically administered at a dose of 15.0 mg/kg and an administration volume of 5.0 mL/kg.
6. Test Protocol for Determination of APTT Value in Cynomolgus Monkeys
6.1 Experimental Materials
Reagents: APTT reagent (Activated partial thromboplastin time assay kit, SIEMENS, Art. No. B4218-1), PEG-400 and CMC-Na;
Instrument: Coagulation instrument (SYSMEX, CA-500).
6.2 Collection and Processing of APTT Plasma Sample
Blood was taken before administration and at 1 hour, 2 hours, 4 hours, 8 hours and 12 hours after administration. About 1.8 mL of blood was taken through femoral vein puncture in each animal for each time. Anticoagulated sodium citrate was added. After the blood sample was collected, it was placed in a pre-labeled centrifuge tube, and the plasma was separated by centrifugation (centrifugation conditions: 3500 rpm, 10 minutes, 2-8° C.). The plasma was stored in a −80° C. refrigerator for APTT assay.
6.3 APTT Assay Results in Cynomolgus Monkeys

[2] = Pharmacokinetics assay in cynomolgus monkeys; format: in vivo; conditions: male, cynomolgus monkey, plasma, po, intragastric, 15 mg/kg; for Vd/F: read-out: Apparent Distribution Volume Vz/F; for AUC: read-out: Area Under Curve AUC; for CL/F: read-out: Clearance CLz/F; for half-life: read-out: Half-Life T½ (converted); for MRT: read-out: Mean Residence Time MRT; for Cmax: read-out: Plasma Concentration Cmax
From the text: as §1
Cynomolgus monkeys were used as test animals. […] The pharmacokinetic behavior of the compounds of the present invention was studied and evaluated in the cynomolgus monkeys.
as §2, §3, §4, §5, §6
7. Test Protocol of Pharmacokinetics Assay in Cynomolgus Monkeys
1.0 mL of blood was taken from the forelimb vein before administration and at 0.25, 0.5, 1, 2, 4, 6, 8, 12 and 24 hours after administration. The samples were stored in heparin anticoagulation tubes, and centrifuged for 10 minutes at 3500 rpm to separate the blood plasma. The plasma samples were stored at −80° C. The […] were fed 2 hours after administration.
(§7) The content of the test compound in the plasma of cynomolgus monkeys after intragastric administration of different concentrations of the drug was determined: 25 μL of cynomolgus monkey plasma at each time after administration was taken and added with 30 μL (100 ng/mL) of the internal standard solution of camptothecin and 225 μL of acetonitrile, shaken vertically for 5 minutes, and centrifuged for 10 minutes (4000 rpm). 1.0 μL of the supernatant was taken from the plasma samples for LC/MS/MS analysis.
7.2. Results of Pharmacokinetic Parameters in Cynomolgus Monkeys
Pharmacokinetic parameters of the compounds of the present invention in cynomolgus monkeys are shown below.

[3] = Pharmacokinetics assay in rats after intragastrical administration; format: in vivo, Sprague-Dawley (SD) rats; conditions: both sexes, Sprague-Dawley, rat, plasma, po, SD rats, intragastric, 2 mg/kg; for Vd/F: read-out: Apparent Distribution Volume Vz/F; for AUC: read-out: Area Under Curve AUC; for CL/F: read-out: Clearance CLz/F; for half-life: read-out: Half-Life T½ (converted); for MRT: read-out: Mean Residence Time MRT; for Cmax: read-out: Plasma Concentration Cmax
From the text: Test Example 3. Pharmacokinetics Assay of the Compounds of the Present Invention
Rats were used as test animals. […] The pharmacokinetic behavior of the compounds of the present invention was studied and evaluated in rats.
56 healthy adult Sprague-Dawley (SD) rats, half male and half female, were purchased from SINO-BRITSH SIPPR/BK LAB. ANIMAL LTD., CO, with License No.: SCXK (Shanghai) 2008-0016.
2.3 Preparation of the Test Compounds
A certain amount of the test compound was weighed, and added with 5% by volume of DMSO, 5% by volume of Tween 80 and 90% normal saline to prepare a 0.2 mg/mL colorless, clear and transparent solution.
After an overnight fast, SD rats were intragastrically administered at a dose of 2.0 mg/kg and an administration volume of 10.0 mL/kg.
Blood (0.2 mL) was taken from the orbital sinus before administration and at 0.5, 1.0, 2.0, 4.0, 6.0, 8.0, 11.0 and 24.0 hours after administration. The samples were stored in heparin anticoagulation tubes, and centrifuged for 10 minutes at 3500 rpm at 4° C. to separate the blood plasma. The plasma samples were stored at −20° C. The rats were fed 2 hours after administration.
as §7, with “rats” for “cynomolgus monkeys”, “rat” for “cynomolgus monkey”, “200” for “225”, “3.0” for “1.0”
4. Results of Pharmacokinetic Parameters
Pharmacokinetic parameters of the compounds of the present invention in rats are shown below.

[4] = molecular target: Coagulation Factor XIa protease (Homo sapiens (Human), UniProt P03951); assay: Inhibition of Factor XIa detected by absorption photometry; format: biochemical; conditions: absorbance at 405 nm, 10 minutes at 37° C.
Coagulation Factor XIa protease, sequence (P03951 388-625): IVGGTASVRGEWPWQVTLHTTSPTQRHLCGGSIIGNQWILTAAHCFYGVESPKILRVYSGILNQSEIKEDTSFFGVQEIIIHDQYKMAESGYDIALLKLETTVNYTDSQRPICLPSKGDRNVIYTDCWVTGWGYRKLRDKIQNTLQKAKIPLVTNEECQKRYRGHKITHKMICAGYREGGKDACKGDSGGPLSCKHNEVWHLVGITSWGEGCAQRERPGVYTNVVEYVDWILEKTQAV
Coagulation Factor XIa protease, sequence (P03951 19-387 partner): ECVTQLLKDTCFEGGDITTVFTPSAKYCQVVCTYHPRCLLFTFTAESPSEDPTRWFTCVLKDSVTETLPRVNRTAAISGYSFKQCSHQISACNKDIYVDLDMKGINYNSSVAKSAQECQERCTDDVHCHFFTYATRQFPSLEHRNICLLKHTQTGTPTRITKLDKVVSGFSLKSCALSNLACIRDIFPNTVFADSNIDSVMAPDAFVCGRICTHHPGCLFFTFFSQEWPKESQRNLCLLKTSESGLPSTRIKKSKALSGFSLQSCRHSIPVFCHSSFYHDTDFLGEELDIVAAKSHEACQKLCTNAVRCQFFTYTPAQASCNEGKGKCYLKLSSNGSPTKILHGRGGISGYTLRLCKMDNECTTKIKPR
Procedure, shortened: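 Read-out was absorbance at 405 nm after 10 min incubation at 37° C. Compound dilutions in 100% DMSO (200 to 0.002 μM) were combined with FXIa (2.5 μg/ml solution), then FXIa-specific chromogenic substrate (2 mM solution) was added; both are stock concentrations, not final.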

Row | Compound | Vd/F [3] | AUC [3] | CL/F [3] | half-life [3] | MRT [3] | Cmax [3] | IC50 [4] | CT2, concentration doubling APTT (human blood) | APTT (sec) 1 hour [1] | APTT (sec) 2 hours [1] | APTT (sec) 4 hours [1] | APTT (sec) 8 hours [1] | APTT (sec) 12 hours [1] | APTT (sec) Before Administration [1] | Vd/F [2] | AUC [2] | CL/F [2] | half-life [2] | MRT [2] | Cmax [2]
1 | CCC(=O)c1ccc(Cl)cc1-c1cc(=O)n([C@@H](CCOC(C)(C)C)C(=O)Nc2ccc(C(=O)O)cc2)cc1OC [Example 108, (S)-4-(4-(tert-butoxy)-2-(4-(5-chloro-2-propionylphenyl)-5-methoxy-2-oxopyridin-1(2H)-yl)butanamido)benzoic acid] | 44.4 ± 3.45 L/kg | 452 ± 44 ng·h/mL | 74.3 ± 6.9 mL/min/kg | 6.98 ± 1.22 h | 7.33 ± 0.48 h | 105 ± 23 ng/mL | – | 1.4 µM | 26.3 s and 31.2 s and 31.9 s | 27.5 s and 27.1 s and 28.5 s | 28.7 s and 24.1 s and 28.6 s | 26.9 s and 20.3 s and 26.3 s | 27.3 s and 19 s and 21.5 s | 17.5 s and 18.5 s and 17.6 s | 59.1 ± 26.2 L/kg | 2700 ± 1340 ng·h/mL | 120 ± 83 mL/min/kg | 6.32 ± 1.47 h | 8.81 ± 3.65 h | 295 ± 102 ng/mL
2 | COc1cn([C@@H](Cc2ccccc2)C(=O)Nc2ccc(C(=O)O)cc2)c(=O)cc1-c1cc(Cl)ccc1C(C)=O [Example 5, (S)-4-(2-(4-(2-acetyl-5-chlorophenyl)-5-methoxy-2-oxopyridin-1(2H)-yl)-3-phenylpropanamido)benzoic acid] | 4.98 ± 0.291 L/kg | 518 ± 63 ng·h/mL | 65.1 ± 8.1 mL/min/kg | 0.89 ± 0.08 h | 6.64 ± 1.77 h | 244 ± 77 ng/mL | – | 2.0 µM | 36.8 s and 25.9 s | 33.3 s and 31.4 s and 27.2 s | 28.3 s and 26.1 s and 22.2 s | 27.3 s and 32.5 s and 24.8 s | 28.6 s and 23.8 s and 23.9 s | 17.2 s and 17.3 s and 19.1 s | 30.4 ± 12.6 L/kg | 4950 ± 2880 ng·h/mL | 62 ± 32 mL/min/kg | 5.86 ± 1.1 h | 9.63 ± 0.78 h | 688 ± 560 ng/mL
3 | COc1cn([C@@H](CCOC(C)(C)C)C(=O)Nc2ccc(C(=O)O)cc2)c(=O)cc1-c1cc(Cl)ccc1C(C)=O [Example 111, (S)-4-(2-(4-(2-acetyl-5-chlorophenyl)-5-methoxy-2-oxopyridin-1(2H)-yl)-4-(tert-butoxy)butanamido)benzoic acid] | 36.7 ± 13.7 L/kg | 378 ± 98 ng·h/mL | 94.1 ± 30.8 mL/min/kg | 4.94 ± 2.33 h | 4.41 ± 1.99 h | 252 ± 56 ng/mL | 18 nM | 3.2 µM | – | – | – | – | – | – | – | – | – | – | – | –
4 | COc1cn([C@@H](Cc2ccccc2)C(=O)Nc2ccc(C(N)=O)cc2)c(=O)cc1-c1cc(Cl)ccc1C(C)=O [Example 11, (S)-4-(2-(4-(2-acetyl-5-chlorophenyl)-5-methoxy-2-oxopyridin-1(2H)-yl)-3-phenylpropanamido)benzamide] | 40.2 ± 18.6 L/kg | 125 ± 50 ng·h/mL | 299 ± 111 mL/min/kg | 1.53 ± 0.33 h | 2.12 ± 0.17 h | 73.1 ± 32.3 ng/mL | 13 nM | 4.2 µM | – | – | – | – | – | – | – | – | – | – | – | –

Now from value to compound, other results behind:

Row | Vd/F [3] | AUC [3] | CL/F [3] | half-life [3] | MRT [3] | Cmax [3] | IC50 [4] | Compound | CT2, concentration doubling APTT (human blood) | APTT (sec) 1 hour [1] | APTT (sec) 2 hours [1] | APTT (sec) 4 hours [1] | APTT (sec) 8 hours [1] | APTT (sec) 12 hours [1] | APTT (sec) Before Administration [1] | Vd/F [2] | AUC [2] | CL/F [2] | half-life [2] | MRT [2] | Cmax [2]
5 | 15.8 ± 2.29 L/kg | 158 ± 45 ng·h/mL | 222 ± 55.7 mL/min/kg | 0.85 ± 0.14 h | 1.85 ± 0.76 h | 126 ± 50 ng/mL | 40 nM | COc1cn([C@@H](Cc2ccccn2)C(=O)Nc2ccc(C(=O)O)cc2)c(=O)cc1-c1cc(Cl)ccc1C(C)=O [Example 80, (S)-4-(2-(4-(2-acetyl-5-chlorophenyl)-5-methoxy-2-oxopyridin-1(2H)-yl)-3-(pyridin-2-yl)propanamido)benzoic acid] | 7.9 µM | – | – | – | – | – | – | – | – | – | – | – | –
6 | 26.9 ± 14 L/kg | 241 ± 168 ng·h/mL | 217 ± 151 mL/min/kg | 1.67 ± 0.48 h | 2.36 ± 1.05 h | 119 ± 78 ng/mL | 46 nM | CNC(=O)c1ccc(NC(=O)[C@H](Cc2ccccc2)n2cc(OC)c(-c3cc(Cl)ccc3C(C)=O)cc2=O)cc1 [Example 13, (S)-4-(2-(4-(2-acetyl-5-chlorophenyl)-5-methoxy-2-oxopyridin-1(2H)-yl)-3-phenylpropanamido)-N-methylbenzamide] | 6.0 µM | – | – | – | – | – | – | – | – | – | – | – | –
7 | 34.6 ± 4.13 L/kg | 365 ± 52 ng·h/mL | 92.5 ± 12.3 mL/min/kg | 4.34 ± 0.35 h | 8.3 ± 1.33 h | 53.9 ± 20.3 ng/mL | 68 nM | COc1cn([C@H](CC2CCC2)C(=O)Nc2ccc(C(=O)O)cc2)c(=O)cc1-c1c(C(C)=O)ccc(Cl)c1F [Example 160, (R)-4-(2-(4-(6-acetyl-3-chloro-2-fluorophenyl)-5-methoxy-2-oxopyridin-1(2H)-yl)-3-cyclobutylpropanamido)benzoic acid] | 3.8 µM | – | – | – | – | – | – | – | – | – | – | – | –
